Reference: US11332475B2, “Optically active pyranochromenyl phenol derivative and pharmaceutical composition comprising same” (GLACEUM, INC., priority 2016, dated 2022)

Assays:
Assay type in all cases: in vivo
[1] = test system: diet induced obesity (DIO) mouse; assay: Anti-obesity effect (body weight change) in diet induced obesity (DIO) mouse; conditions: for Anti-obesity effect (%): % body weight change by Equation 1; for Anti-obesity activity compared with other isomer/racemate: result in words
Description: Specifically, a 5- to 6-week-old female C57BL/6J mouse (Jackson Lab., USA) were purchased and fed with only high-fat fodder for at least 11 weeks to produce a diet induced obesity (DIO) mouse. Samples were exactly taken from a control and the racemic compound, the R-enantiomer (Compound 2a) and the S-enantiomer (Compound 2b) in Example 1 according to the administration dose (0, 20, and 50 mg/kg) and put into Falcon tubes, 3 ml of a 0.5% aqueous methyl cellulose solution was added thereto, and the resulting mixture was gently mixed by means of a vortex mixer. Thereafter, the mixture was homogenized by using a homogenizer (30,000 rpm, Ultra-Turrax® T10 Basic, IKA) for 3 minutes while 1.5 ml of a 0.5% aqueous methyl cellulose solution was added thereto. The sample thus prepared was administered through the oral gavage once daily for 6 weeks by using a disposable plastic syringe. The body weight was measured once a week while the DIO mouse was bred in this manner.
Based on the data thus measured, the anti-obesity effect was calculated according to the following Equation 1. Anti-obesity effect (%)={(Body weight after compound is administered)−(Body weight before compound is administered)}/(Body weight before compound is administered))×100 [Equation 1]
For the anti-obesity efficacy of the R-enantiomer (Compound 3a) and the S-enantiomer (Compound 3b) of the optically active pyranochromenylphenol compound prepared in Example 2, an experiment was performed in the same manner as in Experimental Example 1.
Based on the data thus measured, the anti-obesity effect was calculated according to Equation 1.

C57BLKS/J-db/db mice [2] = assay: Change in glycated hemoglobin of db/db mouse; conditions: average; for Glycated hemoglobin (HbAlc, %), before administration: 300 mg/kg group, before administration (baseline); for Glycated hemoglobin (HbAlc, %), 29th day after administration / Glycated hemoglobin (HbAlc, %), 43rd day after administration: 300 mg/kg
Description: (§1) Specifically, 5-week-old male C57BLKS/J-db/db mice (Central Lab. Animal Inc., Korea) were purchased and acclimatized for 2 weeks, and then used in the present experiment. The R-enantiomer (Compound 3a) and the S-enantiomer (Compound 3b) prepared in Example 2 were weighed (CP423S, Sartorius, Germany) according to the administration dose and put into 50 ml tubes, an excipient (10% LM 2125 CS MCT solution) stored at room temperature was added thereto, and then the resulting mixture was stirred by means of a vortex mixer so as to dissolve the excipient. Thereafter, the solution was ultrasonically treated for about 10 minutes, and a stock solution was prepared by formulating the solution at a predetermined concentration. A 0.5% aqueous MC solution as an excipient was added to the prepared stock solution, the resulting mixture was gently stirred by means of a vortex mixer, homogenized and prepared by means of a homogenizer (PT-1600E, Kinematica, Switzerland) at 30,000 rpm for 3 minutes, and then a solution was prepared at a final predetermined concentration by performing ultrasonic wave treatment for 30 minutes. The sample thus prepared was administered through the oral gavage once daily for 6 weeks by using a disposable plastic syringe with a zonde for oral administration attached.
By using the same method as in Experimental Example 3, a racemic compound of Compound 1, Compound 1a being an R-enantiomer, a racemic compound of Compound 3 prepared in Example 2 and Compound 3a being an R-enantiomer were administered to the C57BLKS/J-db/db mice, and then the anti-diabetes effects were confirmed.
The following Table 5 is a result of measuring a change in glycated hemoglobin of the db/db mouse according to the administration of the normal group, the negative control the racemic compound of Compound 1, Compound 1a being the R-enantiomer, the racemic Compound of Compound 3 prepared in Example 2 and Compound 3a being the R-enantiomer.

C57BLKS/J-db/db mice [3] = assay: Glucose tolerance test in db/db mice; conditions: db/db mouse; for Blood sugar (mg/dl), 15 min after administration of glucose / Blood sugar (mg/dl), 30 min after administration of glucose / Blood sugar (mg/dl), 60 min after administration of glucose / Blood sugar (mg/dl), 120 min after administration of glucose / Blood sugar (mg/dl), 180 min after administration of glucose / Blood sugar (mg/dl), 240 min after administration of glucose / Blood sugar (mg/dl), 0 min after administration of glucose / AUC of blood sugar: 48th day, average; for Blood sugar (mg/dl), 15 min after administration of glucose / Blood sugar (mg/dl), 30 min after administration of glucose / Blood sugar (mg/dl), 60 min after administration of glucose / Blood sugar (mg/dl), 120 min after administration of glucose / Blood sugar (mg/dl), 180 min after administration of glucose / Blood sugar (mg/dl), 240 min after administration of glucose / Blood sugar (mg/dl), 0 min after administration of glucose: glucose 2 g/kg oral; for Blood sugar (mg/dl), 0 min after administration of glucose: before glucose; for AUC of blood sugar: glucose tolerance test 0-240 min, Phoenix WinNonlin
Description: as §1
While the C57BLKS/J-db/db mouse was bred, the mouse was fasted for 14 to 16 hours on the 48th day after administration, and then a glucose tolerance test was performed by orally administering glucose (Lot No: SLBM9269V, Sigma-Aldrich. USA) at a dose of 2 g/kg to the mice. Specifically, blood was collected from the caudal vein seven times in total including before the administration of glucose, at 15 minutes after the administration of glucose, at 30 minutes after the administration of glucose, at 60 minutes after the administration of glucose, at 120 minutes after the administration of glucose, at 180 minutes after the administration of glucose, and at 240 minutes after the administration of glucose. Thereafter, blood sugar was measured by using two blood sugar meters (AGM-4000, Allmedicus Inc., Korea), and then an average blood sugar was calculated by using each blood sugar measurement value. The area under the blood concentration-time curve (AUC) for the blood sugar value at each measurement time point was calculated by using a Phoenix WinNonlin program.

[4] = 50 mg/kg oral gavage once daily for 6 weeks
[5] = 200 mg/kg oral gavage once daily for 6 weeks

CCOc1ccc([C@@H]2COc3c(ccc4c3CCC(C)(C)O4)C2)c(O)c1 [Compound 2a, (R)-3-(2-hydroxy-4-ethoxyphenyl)-8,8-dimethyl-2,3,4,8,9,10-hexahydropyrano[2,3-f]chromene]
Anti-obesity effect (%) [1, 4]: 7.58%

CCCOc1ccc(C2COc3c(ccc4c3CCC(C)(C)O4)C2)c(O)c1 (racemic) [Compound 3, 3-(2-hydroxy-4-propoxyphenyl)-8,8-dimethyl-2,3,4,8,9,10-hexahydropyrano[2,3-f]chromene]
Glycated hemoglobin (HbAlc, %), before administration (C57BLKS/J-db/db mice [2]): 4.7%
Glycated hemoglobin (HbAlc, %), 29th day after administration (C57BLKS/J-db/db mice [2]): 6.7%
Glycated hemoglobin (HbAlc, %), 43rd day after administration (C57BLKS/J-db/db mice [2]): 6.2%

CCCOc1ccc([C@@H]2COc3c(ccc4c3CCC(C)(C)O4)C2)c(O)c1 [Compound 3a, (R)-3-(2-hydroxy-4-propoxyphenyl)-8,8-dimethyl-2,3,4,8,9,10-hexahydropyrano[2,3-f]chromene]
Anti-obesity effect (%) [1, 5]: −8.1%
Glycated hemoglobin (HbAlc, %), before administration (C57BLKS/J-db/db mice [2]): 4.7%
Glycated hemoglobin (HbAlc, %), 29th day after administration (C57BLKS/J-db/db mice [2]): 7.1%
Glycated hemoglobin (HbAlc, %), 43rd day after administration (C57BLKS/J-db/db mice [2]): 5.3%
Blood sugar (mg/dl), 15 min after administration of glucose (C57BLKS/J-db/db mice [3]; 100 mg/kg oral once daily): 473 mg/dL
Blood sugar (mg/dl), 30 min after administration of glucose (C57BLKS/J-db/db mice [3]; 100 mg/kg oral once daily): 527 mg/dL
Blood sugar (mg/dl), 60 min after administration of glucose (C57BLKS/J-db/db mice [3]; 100 mg/kg oral once daily): 541 mg/dL
Blood sugar (mg/dl), 120 min after administration of glucose (C57BLKS/J-db/db mice [3]; 100 mg/kg oral once daily): 200 mg/dL
Blood sugar (mg/dl), 180 min after administration of glucose (C57BLKS/J-db/db mice [3]; 100 mg/kg oral once daily): 176 mg/dL
Blood sugar (mg/dl), 240 min after administration of glucose (C57BLKS/J-db/db mice [3]; 100 mg/kg oral once daily): 184 mg/dL
Blood sugar (mg/dl), 0 min after administration of glucose (C57BLKS/J-db/db mice [3]; 100 mg/kg oral once daily): 193 mg/dL
AUC of blood sugar (C57BLKS/J-db/db mice [3]; 100 mg/kg oral once daily): 526 mg/dL/min
Blood sugar (mg/dl), 15 min after administration of glucose (C57BLKS/J-db/db mice [3]; 150 mg/kg oral once daily): 440 mg/dL
Blood sugar (mg/dl), 30 min after administration of glucose (C57BLKS/J-db/db mice [3]; 150 mg/kg oral once daily): 469 mg/dL
Blood sugar (mg/dl), 60 min after administration of glucose (C57BLKS/J-db/db mice [3]; 150 mg/kg oral once daily): 460 mg/dL
Blood sugar (mg/dl), 120 min after administration of glucose (C57BLKS/J-db/db mice [3]; 150 mg/kg oral once daily): 234 mg/dL
Blood sugar (mg/dl), 180 min after administration of glucose (C57BLKS/J-db/db mice [3]; 150 mg/kg oral once daily): 153 mg/dL
Blood sugar (mg/dl), 240 min after administration of glucose (C57BLKS/J-db/db mice [3]; 150 mg/kg oral once daily): 163 mg/dL
Blood sugar (mg/dl), 0 min after administration of glucose (C57BLKS/J-db/db mice [3]; 150 mg/kg oral once daily): 175 mg/dL
AUC of blood sugar (C57BLKS/J-db/db mice [3]; 150 mg/kg oral once daily): 481 mg/dL/min
Blood sugar (mg/dl), 15 min after administration of glucose (C57BLKS/J-db/db mice [3]; 200 mg/kg oral once daily): 488 mg/dL
Blood sugar (mg/dl), 30 min after administration of glucose (C57BLKS/J-db/db mice [3]; 200 mg/kg oral once daily): 507 mg/dL
Blood sugar (mg/dl), 60 min after administration of glucose (C57BLKS/J-db/db mice [3]; 200 mg/kg oral once daily): 437 mg/dL
Blood sugar (mg/dl), 120 min after administration of glucose (C57BLKS/J-db/db mice [3]; 200 mg/kg oral once daily): 223 mg/dL
Blood sugar (mg/dl), 180 min after administration of glucose (C57BLKS/J-db/db mice [3]; 200 mg/kg oral once daily): 183 mg/dL
Blood sugar (mg/dl), 240 min after administration of glucose (C57BLKS/J-db/db mice [3]; 200 mg/kg oral once daily): 174 mg/dL
Blood sugar (mg/dl), 0 min after administration of glucose (C57BLKS/J-db/db mice [3]; 200 mg/kg oral once daily): 159 mg/dL
AUC of blood sugar (C57BLKS/J-db/db mice [3]; 200 mg/kg oral once daily): 501 mg/dL/min
Adjustment of blood sugar in glucose tolerance test, compared with other enantiomer (C57BLKS/J-db/db mice [3]; result in words): adjusted blood sugar well as compared to the S-enantiomer (Compound 3b)

CCOc1ccc([C@H]2COc3c(ccc4c3CCC(C)(C)O4)C2)c(O)c1 [Compound 2b, (S)-3-(2-hydroxy-4-ethoxyphenyl)-8,8-dimethyl-2,3,4,8,9,10-hexahydropyrano[2,3-f]chromene]
Anti-obesity effect (%) [1, 4]: −10.99%
Anti-obesity activity compared with other isomer/racemate [1]: better effect of suppressing an increase in body weight than the racemic compound and Compound 2a

CCOc1ccc(C2COc3c(ccc4c3CCC(C)(C)O4)C2)c(O)c1 (racemic) [Compound 2, 3-(2-hydroxy-4-ethoxyphenyl)-8,8-dimethyl-2,3,4,8,9,10-hexahydropyrano[2,3-f]chromene]
Anti-obesity effect (%) ([1]; 20 mg/kg oral gavage once daily for 6 weeks): 16.11%
Anti-obesity effect (%) [1, 4]: 2.29%

CCCOc1ccc([C@H]2COc3c(ccc4c3CCC(C)(C)O4)C2)c(O)c1 [Compound 3b, (S)-3-(2-hydroxy-4-propoxyphenyl)-8,8-dimethyl-2,3,4,8,9,10-hexahydropyrano[2,3-f]chromene]
Anti-obesity effect (%) [1, 5]: −19.5%
Body weight of the mouse after administration for 6 weeks ([1]; 6 weeks, FIG. 4, result in words): close to the body weight of the normal mouse
Anti-obesity activity compared with other isomer/racemate [1]: better anti-obesity activity than Compound 3a
Blood sugar (mg/dl), 15 min after administration of glucose (C57BLKS/J-db/db mice [3]; 100 mg/kg oral once daily): 595 mg/dL
Blood sugar (mg/dl), 30 min after administration of glucose (C57BLKS/J-db/db mice [3]; 100 mg/kg oral once daily): 616 mg/dL
Blood sugar (mg/dl), 60 min after administration of glucose (C57BLKS/J-db/db mice [3]; 100 mg/kg oral once daily): 628 mg/dL
Blood sugar (mg/dl), 120 min after administration of glucose (C57BLKS/J-db/db mice [3]; 100 mg/kg oral once daily): 472 mg/dL
Blood sugar (mg/dl), 180 min after administration of glucose (C57BLKS/J-db/db mice [3]; 100 mg/kg oral once daily): 422 mg/dL
Blood sugar (mg/dl), 240 min after administration of glucose (C57BLKS/J-db/db mice [3]; 100 mg/kg oral once daily): 397 mg/dL
Blood sugar (mg/dl), 0 min after administration of glucose (C57BLKS/J-db/db mice [3]; 100 mg/kg oral once daily): 392 mg/dL
AUC of blood sugar (C57BLKS/J-db/db mice [3]; 100 mg/kg oral once daily): 782 mg/dL/min
